What was measured:
Tubulin [1] = experiment: Inhibition of tubulin polymerization (unknown origin); type: protein-complex assay, Homo sapiens
A549 [2] = experiment: Antiproliferative activity against human A549 cells assessed as reduction in cell viability incubated for 48 hrs by MTT assay; type: functional, cell-based; settings: A549, 48 h
HCT-116 [3] = experiment: Antiproliferative activity against human HCT-116 cells assessed as reduction in cell viability incubated for 48 hrs by MTT assay; type: functional, cell-based; settings: HCT-116, 48 h
HL-60 = experiment: Antitumor activity against human HL-60 cells xenografted in nude mouse assessed as inhibition of tumor growth at 100 mg/kg, ip administered once daily for 7 days relative to control; type: functional; settings: HL-60, 168 h, time 7 day, read-out: TGI
[4] = target: T1, Protein deacetylase HDAC6 (Homo sapiens, UniProt Q9UBN7); experiment: Inhibition of HDAC6 (unknown origin)
T1 sequence (Q9UBN7 whole entry): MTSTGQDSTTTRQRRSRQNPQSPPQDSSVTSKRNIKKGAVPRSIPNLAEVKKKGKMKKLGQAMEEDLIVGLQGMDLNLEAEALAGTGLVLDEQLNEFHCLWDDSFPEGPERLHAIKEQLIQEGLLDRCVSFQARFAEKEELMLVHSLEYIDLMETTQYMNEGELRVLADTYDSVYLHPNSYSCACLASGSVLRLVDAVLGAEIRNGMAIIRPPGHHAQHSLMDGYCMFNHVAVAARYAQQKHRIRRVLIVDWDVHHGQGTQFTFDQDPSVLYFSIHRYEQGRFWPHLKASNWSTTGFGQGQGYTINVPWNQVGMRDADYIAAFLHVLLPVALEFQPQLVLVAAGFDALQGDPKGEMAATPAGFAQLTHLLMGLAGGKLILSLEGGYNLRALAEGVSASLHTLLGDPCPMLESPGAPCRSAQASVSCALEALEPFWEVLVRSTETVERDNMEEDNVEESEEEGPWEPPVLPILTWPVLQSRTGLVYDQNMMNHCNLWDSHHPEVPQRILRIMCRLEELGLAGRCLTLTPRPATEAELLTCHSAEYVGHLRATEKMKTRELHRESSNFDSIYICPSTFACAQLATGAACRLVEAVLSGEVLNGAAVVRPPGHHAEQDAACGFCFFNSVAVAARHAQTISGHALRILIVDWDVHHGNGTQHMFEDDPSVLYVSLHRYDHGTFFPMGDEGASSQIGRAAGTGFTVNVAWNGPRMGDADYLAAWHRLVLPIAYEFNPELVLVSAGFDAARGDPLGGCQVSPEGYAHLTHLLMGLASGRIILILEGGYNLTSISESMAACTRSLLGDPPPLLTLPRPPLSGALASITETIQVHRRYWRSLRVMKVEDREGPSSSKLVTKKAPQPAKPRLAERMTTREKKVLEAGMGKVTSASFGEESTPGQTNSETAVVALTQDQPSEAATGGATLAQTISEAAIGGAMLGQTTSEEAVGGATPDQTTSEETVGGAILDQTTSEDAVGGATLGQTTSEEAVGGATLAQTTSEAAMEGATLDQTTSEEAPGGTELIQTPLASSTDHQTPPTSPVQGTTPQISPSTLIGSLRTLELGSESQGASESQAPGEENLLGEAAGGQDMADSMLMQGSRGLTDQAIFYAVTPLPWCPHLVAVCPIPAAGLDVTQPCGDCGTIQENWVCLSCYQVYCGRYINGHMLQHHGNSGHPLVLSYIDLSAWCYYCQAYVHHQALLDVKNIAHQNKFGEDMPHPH

PC-3 [5] = experiment: Antitumor activity against human PC-3 cells xenografted in nude mouse assessed as inhibition of tumor growth at 100 mg/kg, ip administered once daily for 7 days relative to control; type: functional; settings: PC-3, 168 h, time 7 day, read-out: TGI
PC-3 [6] = experiment: Antiproliferative activity against human PC-3 cells assessed as reduction in cell viability incubated for 48 hrs by MTT assay; type: functional, cell-based; settings: PC-3, 48 h
A549 [7] = experiment: Cytotoxicity against human A549 cells assessed as reduction in cell growth measured for 72 hrs by MTT assay; type: functional, cell-based; settings: A549, 72 h
Histone deacetylase 2 [8] = target: T2, Histone deacetylase 2 (Homo sapiens, UniProt Q92769); experiment: Inhibition of human recombinant HDAC2 extracted from baculovirus infected Insect cells using Ac-Lys-Tyr-Lys (acetyl)-AMC as substrate incubated for 24 hrs by fluorescence analysis; design: species or system Insect cell
T2 sequence (Q92769 whole entry): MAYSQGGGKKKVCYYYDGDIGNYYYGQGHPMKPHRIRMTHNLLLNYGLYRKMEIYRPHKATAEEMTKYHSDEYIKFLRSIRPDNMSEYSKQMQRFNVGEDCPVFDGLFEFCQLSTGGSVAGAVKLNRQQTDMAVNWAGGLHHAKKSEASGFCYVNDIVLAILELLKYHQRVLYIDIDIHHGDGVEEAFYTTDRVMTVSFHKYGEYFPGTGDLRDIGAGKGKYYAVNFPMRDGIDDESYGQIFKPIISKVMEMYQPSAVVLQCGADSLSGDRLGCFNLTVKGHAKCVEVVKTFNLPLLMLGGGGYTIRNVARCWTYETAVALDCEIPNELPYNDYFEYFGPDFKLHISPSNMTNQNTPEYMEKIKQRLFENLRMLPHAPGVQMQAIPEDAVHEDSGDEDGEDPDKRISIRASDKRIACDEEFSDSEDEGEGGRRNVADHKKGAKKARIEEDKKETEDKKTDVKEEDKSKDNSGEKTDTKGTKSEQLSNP

518A2 = experiment: Antiproliferative activity against human 518A2 cells assessed as reduction in cell viability incubated for 72 hrs by MTT assay; type: functional, cell-based; settings: 518A2, 72 h
HepG2 = experiment: Antiproliferative activity against human HepG2 cells assessed as reduction in cell viability incubated for 72 hrs by MTT assay; type: functional, cell-based; settings: HepG2, 72 h
MCF7 [9] = experiment: Antiproliferative activity against human MCF7 cells assessed as reduction in cell viability incubated for 72 hrs by MTT assay; type: functional, cell-based; settings: MCF7, 72 h
[10] = target: T1, Protein deacetylase HDAC6; experiment: Inhibition of human recombinant HDAC6 using Boc-Lys(Ac)-AMC as substrate preincubated for 15 mins followed by substrate addition and measured after 60 mins by fluorescence based microplate reader analysis
Homo sapiens [11] = organism: Homo sapiens; experiment: Selectivity index, ratio of IC50 for inhibition of human recombinant HDAC2 to IC50 for inhibition of human recombinant HDAC6
Histone deacetylase 2 [12] = target: T2, Histone deacetylase 2; experiment: Inhibition of human recombinant HDAC2 extracted from baculovirus infected Sf9 insect cells using Ac-Leu-Gly-Lys(Ac)-AMC as substrate preincubated for 30 mins followed by substrate addition measured after 1 hr by fluorescence based analysis
Histone deacetylase 1 [13] = target: T3, Histone deacetylase 1 (Homo sapiens, UniProt Q13547); experiment: Inhibition of human recombinant HDAC1 using Boc-Lys(Ac)-AMC or Boc-Lys(Tfa)-AMC as substrate incubated for 1 hr by fluorescence based analysis
T3 sequence (Q13547 whole entry): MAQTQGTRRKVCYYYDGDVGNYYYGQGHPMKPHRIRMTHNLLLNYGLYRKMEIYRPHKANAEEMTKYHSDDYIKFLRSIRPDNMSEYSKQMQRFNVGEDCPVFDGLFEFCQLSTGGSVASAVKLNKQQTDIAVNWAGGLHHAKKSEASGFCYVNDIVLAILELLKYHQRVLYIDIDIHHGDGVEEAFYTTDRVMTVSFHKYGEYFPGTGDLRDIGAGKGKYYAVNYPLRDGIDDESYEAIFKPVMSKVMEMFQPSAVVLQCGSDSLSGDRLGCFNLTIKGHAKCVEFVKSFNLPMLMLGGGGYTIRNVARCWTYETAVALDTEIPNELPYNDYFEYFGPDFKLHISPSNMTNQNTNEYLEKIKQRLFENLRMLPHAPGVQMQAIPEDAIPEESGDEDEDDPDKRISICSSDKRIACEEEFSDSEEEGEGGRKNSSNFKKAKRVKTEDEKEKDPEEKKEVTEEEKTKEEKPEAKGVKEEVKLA

Homo sapiens [14] = organism: Homo sapiens; experiment: Selectivity index, ratio of IC50 for inhibition of human recombinant HDAC1 to IC50 for inhibition of human recombinant HDAC6
HCT-116 [15] = experiment: Antiproliferative activity against human HCT-116 cells assessed as reduction in cell viability by MTT assay; type: functional, cell-based
Histone deacetylase 1 [16] = target: T3, Histone deacetylase 1; experiment: Inhibition of HDAC1 (unknown origin)
MGC-803 = experiment: Antiproliferative activity against human MGC-803 cells assessed as reduction in cell viability by MTT assay; type: functional, cell-based
KYSE-450 = experiment: Antiproliferative activity against human KYSE-450 cells assessed as reduction in cell viability by MTT assay; type: functional, cell-based
HCT-116 [17] = experiment: Antitumor activity against human HCT-116 cells xenografted in BALB/c nude mouse assessed as tumor growth inhibition at 25 mg/kg, ip administered once daily for 1 week relative to control; type: functional; settings: HCT-116, 168 h, time 1 weeks, read-out: TGI
MCF7 [18] = experiment: Antitumor activity against human MCF7 cells xenografted in BALB/c nude mouse assessed as tumor growth inhibition at 25 mg/kg, ip administered once daily for 1 week relative to control; type: functional; settings: MCF7, 168 h, time 1 weeks, read-out: TGI
A2780 = experiment: Antitumor activity against human A2780 cells xenografted in BALB/c nude mouse assessed as tumor growth inhibition at 25 mg/kg, ip administered once daily for 1 week relative to control; type: functional; settings: A2780, 168 h, time 1 weeks, read-out: TGI
[19] = target: T1, Protein deacetylase HDAC6; experiment: Inhibition of FLAG/His-tagged human recombinant HDAC6 extracted from baculovirus infected Sf9 cells […] by fluorescence based analysis
Histone deacetylase 1 [20] = target: T3, Histone deacetylase 1; experiment: Inhibition of human recombinant FLAG/His-tagged HDAC1 using fluorogenic substrate by fluorescence microplate reader assay
T47D = experiment: Antiproliferative activity against human T47D cells assessed as reduction in cell viability by MTT assay; type: functional, cell-based
Tubulin [21] = experiment: Inhibition of tubulin polymerization (unknown origin) by fluorescence based assay; type: protein-complex assay, Homo sapiens
UO-31 = experiment: Antiproliferative activity against human UO-31 cells assessed as reduction in cell viability by MTT assay; type: functional, cell-based
Tubulin (Homo sapiens) = Tubulin (Homo sapiens) (UniProt P68371+Q9H4B7+P0DPH7+P68366+Q13509+Q71U36+P04350+Q3ZCM7+P07437+P68363+Q9BQE3+Q6PEY2+Q13885+Q9BVA1+Q9BUF5); experiment: Inhibition of tubulin polymerization (unknown origin) at 10 uM relative to control; type: protein-complex assay
[22] = Inhibition of bovine brain tubulin polymerization measured after 20 mins by spectrophotometric analysis; design: species or system Bos taurus

COc1ccc(-c2cccc(-c3cc(OC)c(OC)c(OC)c3)n2)cc1CCC(=O)NO
IC50 (Tubulin [1]): 117 nM

COc1ccc2c(C(=O)c3cc(OC)c(OC)c(OO)c3)cn(S(=O)(=O)c3cccc(/C=C/CC(=O)NO)c3)c2c1
IC50 (A549 [2]): 73 nM | IC50 (HCT-116 [3]): 44 nM | inhibition in vivo at 100 mg/kg (HL-60): 40.9% | IC50 [4]: 276 nM | inhibition in vivo at 100 mg/kg (PC-3 [5]): 31.1% | IC50 (PC-3 [6]): 33 nM

COc1cc([C@@H]2c3cc4c(cc3C[C@H]3COC(=O)[C@@H]32)OCO4)cc(OC)c1OC(=O)CC(=O)NCc1ccc(C(=O)Nc2ccccc2N)cc1
IC50 (A549 [7]): 40 nM

COc1cc([C@@H]2c3cc4c(cc3C[C@H]3COC(=O)[C@@H]32)OCO4)cc(OC)c1OC(=O)CC(=O)Nc1ccc(C(=O)Nc2ccccc2N)cc1
IC50 (Histone deacetylase 2 [8]): 1730 nM

COc1ccc(-c2ocnc2-c2cc(Br)c(OC)c(OC)c2)cc1OCCCC(=O)NO
IC50 (518A2): 710 nM

COc1cc(/C=C/C(=O)c2ccc(NC(=O)c3ccccc3CN3C(=O)c4ccccc4C3=O)cc2)cc(OC)c1OC
IC50 (HepG2): 1620 nM | IC50 (MCF7 [9]): 1880 nM | IC50 (Tubulin [1]): 2320 nM

COc1ccc2c(C(=O)c3cc(OC)c(OC)c(OO)c3)c[nH]c2c1
IC50 (Tubulin [1]): 2800 nM

COc1ccc2c(C(=O)c3cc(OC)c(OC)c(OO)c3)cn(Cc3ccc(C(=O)NO)cc3)c2c1
IC50 [10]: 65 nM | Ratio IC50 (Homo sapiens [11]): 21.8 | IC50 (Histone deacetylase 2 [12]): 1410 nM | IC50 (Histone deacetylase 1 [13]): 573 nM | Ratio IC50 (Homo sapiens [14]): 8.89

COc1ccc(CN(C(=O)CC2CCC(C(=O)Nc3ccccc3N)CC2)c2cc(OC)c(OC)c(OC)c2)cc1O (stereo not given)
IC50 (HCT-116 [15]): 172 nM | IC50 (Histone deacetylase 1 [16]): 525 nM | IC50 (MGC-803): 39 nM | IC50 (Tubulin [1]): 3640 nM | IC50 (KYSE-450): 254 nM

COc1ccc(N(C)c2nc(C)nc3ccccc23)cc1OCCCC(=O)NO
inhibition in vivo at 25 mg/kg (HCT-116 [17]): 60.4% | inhibition in vivo at 25 mg/kg (MCF7 [18]): 50.5% | inhibition in vivo at 25 mg/kg (A2780): 77.4%

CNC(=O)CCCCOc1nc(-c2ccc(OC)cc2)cc(-c2cc(OC)c(OC)c(OC)c2)c1C#N
IC50 [19]: 84 nM | IC50 (Histone deacetylase 1 [20]): 73.2 nM | IC50 (T47D): 5500 nM | IC50 (Tubulin [21]): 3520 nM | IC50 (UO-31): 3520 nM

COc1ccc2c(C)c(C(=O)c3cc(OC)c(OC)c(OC)c3)oc2c1
IC50 (Tubulin [1]): 620 nM

COc1ccc(-c2cccc(-c3cc(OC)c(OC)c(OC)c3)n2)cc1O
inhibition (Tubulin (Homo sapiens)): 32%

COc1cccc(C(=O)c2oc3cc(OC)c(C#CC(=O)NO)cc3c2C)c1
IC50 [22]: 420 nM

From ChEMBL document CHEMBL6153023, “Tubulin/HDAC dual-target inhibitors: Insights from design strategies, SARs, and therapeutic potential” (Eur J Med Chem, 2025)
